In US9856279B2 (AGIOS PHARMACEUTICALS, INC, priority 2011, dated 2018):
pIC50: −log10 of the molar value.

What was measured:
IDH1 R132H = IDH1 R132H (Homo sapiens, UniProt O75874, R132H); assay: Assay for IDH1 R132H inhibitors (NADPH/aKG, resazurin detection); type: biochemical; conditions: enzyme assay of Example 12; read-out: IDH1R132H IC50
Summary of the method: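 Read-out is resorufin fluorescence (Ex544/Em590) 5 min after adding a 30 μM resazurin detection mix. Before that, mutant enzyme (0.2 μg/ml in its mix) ran 50 min at room temperature with compound, 8 uM NADPH and 2 mM aKG (mix levels) in Tris pH 7.5 with NaCl, MgCl2, BSA.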

HT1080 cells = assay: Cellular assay for IDH1m inhibitors: inhibition of 2-HG production (LC-MS, 48 hours) in HT1080 cells; type: cell-based; conditions: Homo sapiens, HT-1080; inhibition of 2-HG production, HT1080 cells; read-out: HT1080 IC50
Method: Cells (e.g., HT1080 or U87MG) and are grown in T125 flasks in DMEM containing 10% FBS, 1× penicillin/streptomycin and 500 ug/mL G418. They are harvested by trypsin and seeded into 96 well white bottom plates at a density of 5000 cell/well in 100 ul/well in DMEM with 10% FBS. No cells are plates in columns 1 and 12. Cells are incubated overnight at 37° C. in 5% CO2. The next day compounds are made up at 2× concentration and 100 ul are added to each cell well. The final concentration of DMSO is 0.2% and the DMSO control wells are plated in row G. The plates are then placed in the incubator for 48 hours. At 48 hours, 100 μl of media is removed from each well and analyzed by LC-MS for 2-HG concentrations. The cell plate is placed back in the incubator for another 24 hours. At 72 hours post compound addition, 10 mL/plate of Promega Cell Titer Glo reagent is thawed and mixed. The cell plate is removed from the incubator and allowed to equilibrate to room temperature. Then 100 ul of reagent is added to each well of media. The cell plate is then placed on an orbital shaker for 10 minutes and then allowed to sit at room temperature for 20 minutes. The plate is then read for luminescence with an integration time of 500 ms.
The IC50 for inhibition of 2-HG production (concentration of test compound to reduce 2HG production by 50% compared to control) in these two cell lines for various compounds of formula I is set forth in Table 4 above.

Sequence of IDH1 R132H (O75874 whole entry R132H): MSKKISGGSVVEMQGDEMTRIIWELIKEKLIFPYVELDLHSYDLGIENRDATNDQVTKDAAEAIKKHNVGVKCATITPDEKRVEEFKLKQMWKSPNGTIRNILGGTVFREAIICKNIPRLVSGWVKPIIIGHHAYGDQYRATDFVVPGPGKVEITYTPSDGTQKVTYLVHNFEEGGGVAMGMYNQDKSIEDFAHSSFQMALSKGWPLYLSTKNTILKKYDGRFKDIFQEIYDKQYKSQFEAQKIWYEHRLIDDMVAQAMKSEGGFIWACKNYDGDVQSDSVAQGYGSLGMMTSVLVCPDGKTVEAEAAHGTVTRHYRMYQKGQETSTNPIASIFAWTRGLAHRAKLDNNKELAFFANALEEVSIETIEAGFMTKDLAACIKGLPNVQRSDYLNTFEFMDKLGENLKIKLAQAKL

pIC50 (IDH1 R132H)	pIC50 (HT1080 cells)	Structure (SMILES)
> 6.30	6.00 to 6.30	Cc1cc(-c2cc(C#N)c(N3CCN(C(=O)C4CC4)[C@H](C4CC4)C3)nc2C2CC2)c2cccnc2n1 [Compound 557, (R)-2-(4-(cyclopropanecarbonyl)-3-cyclopropylpiperazin-1-yl)-6-cyclopropyl-5-(2-methyl-1,8-naphthyridin-4-yl)nicotinonitrile]
> 6.30	5.00 to 6.00	COCCC(=O)N1CCN(c2nc(C3CC3)c(-c3ccc4nccnc4c3)cc2C#N)C[C@H]1C [Compound 445, (R)-6-cyclopropyl-2-(4-(3-methoxypropanoyl)-3-methylpiperazin-1-yl)-5-(quinoxalin-6-yl)nicotinonitrile]
> 6.30	> 6.30	Cc1cc2c(-c3cc(C#N)c(N4CCN(C(=O)CCO)[C@H](C)C4)nc3C3CC3)cccc2cn1 [Compound 588, (R)-6-cyclopropyl-2-(4-(3-hydroxypropanoyl)-3-methylpiperazin-1-yl)-5-(3-methylisoquinolin-5-yl)nicotinonitrile]
> 6.30	> 6.30	N#Cc1ccc2c(-c3cc(C#N)c(N4CCN(C(=O)C5CC5)[C@H](C5CC5)C4)nc3C3CC3)cccc2n1 [Compound 563, (R)-5-(5-cyano-6-(4-(cyclopropanecarbonyl)-3-cyclopropylpiperazin-1-yl)-2-cyclopropylpyridin-3-yl)quinoline-2-carbonitrile]
> 6.30	> 6.30	C=CC(=O)N1CCC=C(c2c(C3CC3)nc(N3CCN(C(=O)CCOC)[C@H](C)C3)c(C#N)c2C)C1 [Compound 680, (R)-5-(1-acryloyl-1,2,5,6-tetrahydropyridin-3-yl)-6-cyclopropyl-2-(4-(3-methoxypropanoyl)-3-methylpiperazin-1-yl)-4-methylnicotinonitrile]
> 6.30	5.00 to 6.00	C=CC(=O)N(c1cc(C#N)c(N2CCN(C(=O)CCOC)[C@H](C)C2)nc1C1CC1)c1ccnc2ccccc12 [Compound 712, (R)—N-(5-cyano-2-cyclopropyl-6-(4-(3-methoxypropanoyl)-3-methylpiperazin-1-yl)pyridin-3-yl)-N-(quinolin-4-yl)acryl amide]
> 6.30	> 6.30	C=Cc1ncccc1-c1cc(C#N)c(N2CCN(C(=O)CCOC)[C@H](C)C2)nc1C1CC1 [Compound 619, (R)-2-cyclopropyl-6-(4-(3-methoxypropanoyl)-3-methylpiperazin-1-yl)-2′-vinyl-3,3′-bipyridine-5-carbonitrile]
> 6.30	> 6.30	C=Cc1cc(N(C(C)=O)c2cc(C#N)c(N3CCN(C(=O)CCOC)[C@H](C)C3)nc2C2CC2)ccn1 [Compound 662, (R)—N-(5-cyano-2-cyclopropyl-6-(4-(3-methoxypropanoyl)-3-methylpiperazin-1-yl)pyridin-3-yl)-N-(2-vinylpyridin-4-yl)acetamide]
6.00 to 6.30	> 6.30	C=Cc1nccc(-c2cc(C#N)c(N3CCN(C(=O)C4CC4)[C@H](C4CC4)C3)nc2C2CC2)c1F [Compound 520, (R)-6-(4-(cyclopropanecarbonyl)-3-cyclopropylpiperazin-1-yl)-2-cyclopropyl-3′-fluoro-2′-vinyl-3,4′-bipyridine-5-carbonitrile]
6.00 to 6.30	6.00 to 6.30	C=CC(=O)N1CCOC(c2cc(C#N)c(N3CCN(C(=O)C4CC4)[C@H](C)C3)nc2C2CC2)C1 (stereo partly drawn) [Compound 600, 5-(4-acryloylmorpholin-2-yl)-2-((R)-4-(cyclopropanecarbonyl)-3-methylpiperazin-1-yl)-6-cyclopropylnicotinonitrile]
6.00 to 6.30	5.00 to 6.00	C=Cc1cc(-c2cc(C#N)c(N3CCN(C(=O)CCOC)[C@H](C)C3)nc2C2CC2)cc(OC)n1 [Compound 622, (R)-2-cyclopropyl-2′-methoxy-6-(4-(3-methoxypropanoyl)-3-methylpiperazin-1-yl)-6′-vinyl-[3,4′-bipyridine]-5-carbonitrile]
